In US4731459A, “Novel anti-ulcer agents and quassinoids” (Shionogi & Co., Ltd., priority 1985, dated 1988):
Like-named read-outs stand apart in the source and are kept apart here.

Key:
Acute Toxicities = conditions: mouse, in vivo, ip; intraperitoneal, aqueous solution; male ddY mice
Excerpt: Male ddY mice (Body weight 25-28 g each) are employed for the acute toxicity test. The test compounds are intraperitoneally administered in a form of aqueous solution.

[1] = system: ulcer caused by indomethacin (mucosal lesions in the glandular part of the stomach); assay: Effect on ulcer caused by indomethacin; assay type: in vivo, male SD rats; conditions: Rattus norvegicus, ip, read-out: % Inhibition of lesion formation
Description: Indomethacin is subcutaneously administered to male SD rats (body weight: 200-220 g) fasted for 24 hours at a dose of 30 mg/kg. The stomachs are excised 7 hours after the administration. The total length of mucosal lesions occurred in the glandular part of the stomach is measured and % inhibition of lesion formation is calculated in comparison with those in the control group. Fifteen minutes before the administration of indomethacin, the test compounds are intraperitoneally administered in a form of aqueous solution.

[2] = 3.0 mg/Kg, intraperitoneal, 15 min before indomethacin 30 mg/kg s.c., male SD rats, 7 hours
[3] = 0.3 mg/Kg, intraperitoneal, 15 min before indomethacin 30 mg/kg s.c., male SD rats, 7 hours
[4] = 1.0 mg/Kg, intraperitoneal, 15 min before indomethacin 30 mg/kg s.c., male SD rats, 7 hours

SMILES	LD50 (Acute Toxicities) [mg/kg]	inhibition in vivo at 3 mg/kg ([1]; 7 h) [%]	inhibition in vivo at 3 mg/kg [1, 2] [%]	other results
CC1=CC(=O)[C@@H](O)[C@]2(C)[C@H]3[C@@]4(O)OC[C@@]35[C@@H](C[C@@H]12)OC(=O)C[C@H]5C(C)[C@H]4O (stereo partly shown) [IId, 13,18-dihydroailanthone]	> 30	67.8	–	–
CC1=CC(=O)[C@@H](O)[C@]2(C)[C@H]3[C@@]4(O)OC[C@@]35[C@@H](C[C@@H]12)OC(=O)[C@H](O)[C@@]5(O)[C@@H](C)[C@H]4O [IIg-A, 13β,18-Dihydro compound]	–	47.1	–	–
CC1=CC(=O)[C@@H](O)[C@]2(C)[C@H]3[C@@]4(O)OC[C@@]35[C@@H](C[C@@H]12)OC(=O)[C@H](O)[C@@]5(O)[C@]1(CO1)[C@H]4O [IIe, 13α,18-Epoxy-13,18-dihydroeurycomanone]	–	4.9	–	–
CC1CC(=O)[C@@H](O)[C@]2(C)[C@H]3[C@@]4(O)OC[C@@]35[C@@H](C[C@@H]12)OC(=O)C[C@H]5C(C)[C@H]4O (stereo partly shown) [IIc, 3,4,13,18-Tetrahydroailanthone]	> 30	–	13.7	–
CC1=CC(=O)[C@@H](O)[C@]2(C)[C@H]3[C@@]4(O)OC[C@@]35[C@@H](C[C@@H]12)OC(=O)C[C@H]5[C@@]1(CO1)[C@H]4O [IIb, 13β,18-Epoxy-1,3,18-dihydroailanthone]	> 30	–	74.4	–
C=C1[C@@H](O)[C@]2(O)OC[C@]34[C@H]2[C@@]2(C)[C@H](O)C(=O)CC(C)[C@@H]2C[C@H]3OC(=O)[C@H](O)[C@@]14O (single isomer, unassigned) [IIh, 3,4-Dihydroeurycomanone]	–	-10	–	–
CC1=CC(=O)[C@@H](O)[C@]2(C)[C@H]3[C@@]4(O)OC[C@@]35[C@@H](C[C@@H]12)OC(=O)[C@H](O)[C@@]5(O)[C@@]1(CO1)[C@H]4O [IIf, 13β,18-Epoxy-13,18-dihydroeurycomanone]	5.5	–	–	inhibition in vivo at 0.1 mg/kg ([1]; 7 h): 26.4%; inhibition in vivo at 0.3 mg/kg ([1]; 7 h): 71.3%; inhibition in vivo at 1 mg/kg ([1]; 7 h): 92.6%
CC1=CC(=O)[C@@H](O)[C@]2(C)[C@H]3[C@@]4(O)OC[C@@]35[C@@H](C[C@@H]12)OC(=O)C[C@H]5[C@]1(CO1)[C@H]4O [IIa, 13α,18-Epoxy-13,18-dihydroailanthone]	> 100	–	100	inhibition in vivo at 0.3 mg/kg [1, 3]: 36.8%; inhibition in vivo at 1 mg/kg [1, 4]: 77.1%
CC1=CC(=O)[C@@H](O)[C@]2(C)[C@H]3[C@@]4(O)OC[C@@]35[C@@H](C[C@@H]12)OC(=O)[C@H](O)[C@@]5(O)[C@H](C)[C@H]4O [IIg-B, 13α,18-Dihydro compound]	–	-3.1	–	–
C=C1[C@@H](O)[C@]2(O)OC[C@]34[C@H]2[C@@]2(C)[C@H](O)C(=O)C=C(C)[C@@H]2C[C@H]3OC(=O)[C@H](O)[C@@]14O [Ib, eurycomanone]	18.9	–	–	inhibition in vivo at 0.1 mg/kg ([1]; 0.1 mg/Kg, intraperitoneal, 15 min before indomethacin 30 mg/kg s.c., male SD rats, 7 hours): 12.5%; inhibition in vivo at 0.3 mg/kg [1, 3]: 58.5%; inhibition in vivo at 1 mg/kg [1, 4]: 94.7%
